Measurements from PubChem BioAssay (NCI).
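Each compound was tested at five concentrations against cells in 96-well plates for 48 hours. TGI: total growth inhibition.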

Assays:
Assay in all cases: DTP human tumour cell line panel, 48 h
CAKI-1 renal = system: CAKI-1 renal
EKVX NSCLC = system: EKVX NSCLC
NCI-H23 lung = system: NCI-H23 lung
PC-3 prostate = system: PC-3 prostate
OVCAR-3 ovarian = system: OVCAR-3 ovarian
COLO 205 colon = system: COLO 205 colon
NCI-H226 lung = system: NCI-H226 lung
SNB-19 CNS = system: SNB-19 CNS
MDA-MB-231 breast = system: MDA-MB-231 breast
T-47D breast = system: T-47D breast

O=C(Nc1ccccc1)c1cc(S(=O)(=O)NC2=NC(c3ccccc3)c3cc(Cl)ccc3N2)c(SSc2cc(Cl)c(C(=O)Nc3ccccc3)cc2S(=O)(=O)NC2=NC(c3ccccc3)c3cc(Cl)ccc3N2)cc1Cl (stereo not given)
TGI (CAKI-1 renal): > 100 µM | TGI (EKVX NSCLC): > 100 µM | TGI (NCI-H23 lung): > 100 µM | TGI (PC-3 prostate): > 100 µM | TGI (OVCAR-3 ovarian): > 100 µM | TGI (COLO 205 colon): > 100 µM | TGI (NCI-H226 lung): > 100 µM | TGI (SNB-19 CNS): > 100 µM | TGI (MDA-MB-231 breast): > 83.6 µM | TGI (T-47D breast): > 100 µM

O=C1c2ccccc2C(=O)c2c(NCC(O)CO)ccc(NCC(O)CO)c21 (stereo not given)
TGI (CAKI-1 renal): > 100 µM | TGI (EKVX NSCLC): > 100 µM | TGI (NCI-H23 lung): > 100 µM | TGI (PC-3 prostate): > 100 µM | TGI (OVCAR-3 ovarian): > 100 µM | TGI (COLO 205 colon): > 100 µM | TGI (NCI-H226 lung): > 100 µM | TGI (SNB-19 CNS): > 100 µM | TGI (MDA-MB-231 breast): > 100 µM | TGI (T-47D breast): > 100 µM

Cc1ccc(-n2cnc(C(=N)C#N)c2N)cc1
TGI (CAKI-1 renal): > 100 µM | TGI (EKVX NSCLC): > 100 µM | TGI (NCI-H23 lung): > 100 µM | TGI (PC-3 prostate): > 100 µM | TGI (OVCAR-3 ovarian): > 100 µM | TGI (COLO 205 colon): > 100 µM | TGI (NCI-H226 lung): > 100 µM | TGI (SNB-19 CNS): > 100 µM | TGI (MDA-MB-231 breast): > 100 µM | TGI (T-47D breast): > 100 µM

COc1cccc(C(=O)Oc2ccc(OS(=O)(=O)c3ccc(C)cc3)cc2)c1C#N
TGI (CAKI-1 renal): > 100 µM | TGI (EKVX NSCLC): > 100 µM | TGI (NCI-H23 lung): > 100 µM | TGI (PC-3 prostate): > 100 µM | TGI (OVCAR-3 ovarian): > 100 µM | TGI (COLO 205 colon): > 100 µM | TGI (NCI-H226 lung): > 100 µM | TGI (SNB-19 CNS): > 100 µM | TGI (MDA-MB-231 breast): > 100 µM | TGI (T-47D breast): 71.7 µM

CCCNC(=O)NNC(=O)c1c[nH]c2nc(C)ccc2c1=O
TGI (CAKI-1 renal): > 100 µM | TGI (EKVX NSCLC): > 100 µM | TGI (NCI-H23 lung): > 100 µM | TGI (PC-3 prostate): > 100 µM | TGI (OVCAR-3 ovarian): > 100 µM | TGI (COLO 205 colon): > 100 µM | TGI (NCI-H226 lung): > 100 µM | TGI (SNB-19 CNS): > 100 µM | TGI (MDA-MB-231 breast): > 100 µM | TGI (T-47D breast): > 100 µM

Cc1[nH]c(=O)nc2nc3ccc(Cl)cc3c(NCCNCCO)c12
TGI (CAKI-1 renal): 25.4 µM | TGI (EKVX NSCLC): 23.8 µM | TGI (NCI-H23 lung): 21.5 µM | TGI (PC-3 prostate): 27.4 µM | TGI (OVCAR-3 ovarian): 25.2 µM | TGI (COLO 205 colon): 21.6 µM | TGI (NCI-H226 lung): 29.8 µM | TGI (SNB-19 CNS): 21.4 µM | TGI (MDA-MB-231 breast): 24 µM | TGI (T-47D breast): 23.1 µM

CC1=NN(c2nc(N)nc(/C(C#N)=C\c3ccc([N+](=O)[O-])s3)n2)C(C)(C)C1
TGI (CAKI-1 renal): > 21 µM | TGI (EKVX NSCLC): 4.28 µM | TGI (NCI-H23 lung): 3.32 µM | TGI (PC-3 prostate): 0.429 µM | TGI (OVCAR-3 ovarian): 0.404 µM | TGI (COLO 205 colon): 1.61 µM | TGI (NCI-H226 lung): 8.18 µM | TGI (SNB-19 CNS): 5.97 µM | TGI (MDA-MB-231 breast): 0.465 µM | TGI (T-47D breast): 0.264 µM

CO/N=C(\C)c1ccc(Nc2nc3ccccc3c3occc23)cc1
TGI (CAKI-1 renal): 32 µM | TGI (EKVX NSCLC): 27.5 µM | TGI (NCI-H23 lung): 28.9 µM | TGI (PC-3 prostate): 30.3 µM | TGI (OVCAR-3 ovarian): 96.1 µM | TGI (COLO 205 colon): 28.1 µM | TGI (NCI-H226 lung): 24 µM | TGI (SNB-19 CNS): 31.2 µM | TGI (MDA-MB-231 breast): 25.9 µM | TGI (T-47D breast): 28.9 µM

CC1(C)C(C#N)C1C1=C(N2CCOCC2)[C@]2(C)C(OC(=O)c3ccccc3)CC[C@@H]2C1 (stereo not given in full)
TGI (CAKI-1 renal): > 100 µM | TGI (EKVX NSCLC): > 100 µM | TGI (NCI-H23 lung): > 100 µM | TGI (PC-3 prostate): > 100 µM | TGI (OVCAR-3 ovarian): > 100 µM | TGI (COLO 205 colon): > 100 µM | TGI (NCI-H226 lung): > 100 µM | TGI (SNB-19 CNS): > 100 µM | TGI (MDA-MB-231 breast): > 100 µM | TGI (T-47D breast): > 100 µM

O=[N+]([O-])c1ccc(CN(CCCl)OCCCl)cc1
TGI (CAKI-1 renal): > 100 µM | TGI (EKVX NSCLC): > 100 µM | TGI (NCI-H23 lung): > 100 µM | TGI (PC-3 prostate): > 100 µM | TGI (OVCAR-3 ovarian): > 100 µM | TGI (COLO 205 colon): > 100 µM | TGI (NCI-H226 lung): > 100 µM | TGI (SNB-19 CNS): > 100 µM | TGI (MDA-MB-231 breast): > 100 µM | TGI (T-47D breast): > 100 µM

C=CCCON(C(=O)OC(C)(C)C)C(C)(C)C
TGI (CAKI-1 renal): > 100 µM | TGI (EKVX NSCLC): > 100 µM | TGI (NCI-H23 lung): > 100 µM | TGI (PC-3 prostate): > 100 µM | TGI (OVCAR-3 ovarian): > 100 µM | TGI (COLO 205 colon): > 100 µM | TGI (NCI-H226 lung): > 100 µM | TGI (SNB-19 CNS): > 100 µM | TGI (MDA-MB-231 breast): > 100 µM | TGI (T-47D breast): > 100 µM

COC(=O)C1=C(OC(=O)/C(=C/c2ccc(Cl)cc2)c2ccc(Cl)cc2)C(C(=O)OC)[C@@]2(O)[C@@H](C(=O)OC)[C@H](C)C[C@@H]1[C@@H]2C(=O)OC (stereo not given in full)
TGI (CAKI-1 renal): > 100 µM | TGI (EKVX NSCLC): > 100 µM | TGI (NCI-H23 lung): > 100 µM | TGI (PC-3 prostate): > 100 µM | TGI (OVCAR-3 ovarian): > 100 µM | TGI (COLO 205 colon): > 100 µM | TGI (NCI-H226 lung): > 100 µM | TGI (SNB-19 CNS): > 100 µM | TGI (MDA-MB-231 breast): > 100 µM | TGI (T-47D breast): > 100 µM

CN1CCc2c([nH]c3ccccc23)C1
TGI (CAKI-1 renal): > 100 µM | TGI (EKVX NSCLC): > 100 µM | TGI (NCI-H23 lung): > 100 µM | TGI (PC-3 prostate): > 100 µM | TGI (OVCAR-3 ovarian): > 100 µM | TGI (COLO 205 colon): > 100 µM | TGI (NCI-H226 lung): > 100 µM | TGI (SNB-19 CNS): > 100 µM | TGI (MDA-MB-231 breast): > 100 µM | TGI (T-47D breast): > 100 µM

CC1(C)OC(C(=O)Nc2cc3c4ccccc4ccc3c3ccccc23)C(C(=O)N2CCCCC2)O1 (stereo not given)
TGI (CAKI-1 renal): > 54.6 µM | TGI (EKVX NSCLC): > 100 µM | TGI (NCI-H23 lung): > 100 µM | TGI (PC-3 prostate): > 100 µM | TGI (OVCAR-3 ovarian): > 100 µM | TGI (COLO 205 colon): > 100 µM | TGI (NCI-H226 lung): > 100 µM | TGI (SNB-19 CNS): > 100 µM | TGI (MDA-MB-231 breast): > 100 µM | TGI (T-47D breast): > 100 µM

CC(=O)Nc1ccc(N=Nc2c(O)c(S(=O)(=O)O)cc3cc(S(=O)(=O)O)ccc23)cc1
TGI (CAKI-1 renal): > 100 µM | TGI (EKVX NSCLC): > 100 µM | TGI (NCI-H23 lung): > 100 µM | TGI (PC-3 prostate): > 100 µM | TGI (OVCAR-3 ovarian): > 100 µM | TGI (COLO 205 colon): > 100 µM | TGI (NCI-H226 lung): > 100 µM | TGI (SNB-19 CNS): > 100 µM | TGI (MDA-MB-231 breast): > 100 µM | TGI (T-47D breast): > 100 µM

CC(=O)OC(OC(C)=O)c1ccc2ccc3cccc4ccc1c2c34
TGI (CAKI-1 renal): 32.5 µM | TGI (EKVX NSCLC): 80.6 µM | TGI (NCI-H23 lung): 45.1 µM | TGI (PC-3 prostate): 65.6 µM | TGI (OVCAR-3 ovarian): > 100 µM | TGI (COLO 205 colon): 58.4 µM | TGI (NCI-H226 lung): 8.43 µM | TGI (SNB-19 CNS): 98.7 µM | TGI (MDA-MB-231 breast): 84.1 µM | TGI (T-47D breast): 68 µM

Nc1ccc2c(c1)C(=O)N1CCC[C@H]1C(=O)N2
TGI (CAKI-1 renal): > 100 µM | TGI (EKVX NSCLC): > 100 µM | TGI (NCI-H23 lung): > 100 µM | TGI (PC-3 prostate): > 100 µM | TGI (OVCAR-3 ovarian): > 100 µM | TGI (COLO 205 colon): > 100 µM | TGI (NCI-H226 lung): > 100 µM | TGI (SNB-19 CNS): > 100 µM | TGI (MDA-MB-231 breast): > 100 µM | TGI (T-47D breast): > 100 µM

CC1=C(C)CC2C(=O)N(c3cc(C(C)(C)C)ccc3C(C)(C)C)C(=O)C2C1 (stereo not given)
TGI (CAKI-1 renal): > 100 µM | TGI (EKVX NSCLC): > 100 µM | TGI (NCI-H23 lung): > 100 µM | TGI (PC-3 prostate): > 100 µM | TGI (OVCAR-3 ovarian): > 100 µM | TGI (COLO 205 colon): > 100 µM | TGI (NCI-H226 lung): > 100 µM | TGI (SNB-19 CNS): > 100 µM | TGI (MDA-MB-231 breast): > 100 µM | TGI (T-47D breast): > 100 µM
